In ChEMBL document CHEMBL3217478, “Necrosulfonamide inhibits necroptosis by selectively targeting the mixed lineage kinase domain-like protein” (2014):
Activity calls are given as the source filed them. No cut-off for these calls is given here. Residues, ends and D or L forms follow the SMILES beside them. *: point of attachment. X1 = COc1nc(CCCN*)cnc1NS(=O)(=O)c1ccc(NC(=O)CCc2cccs2)cc1; Biotin = O=C1N[C@H]2[C@H](CS[C@H]2CCCCC(=O)*)N1; Ahx = NCCCCCC(=O)O

tested on: HT-29; assay: Cytoprotective activity against TNF-alpha, smac mimetic, z-VAD-induced necrosis in human HT-29 cells assessed as cell survival by measuring cellular ATP level at 4 uM after 24 hrs by Cell Titer-Glo assay relative to control; type: functional; conditions: not given

For `COc1nc(CCCNC(=O)CC[C@H](NC(=O)[C@@H]2CCCN2C(=O)[C@@H]2CCCN2C(=O)[C@@H]2CCCN2C(=O)[C@@H]2CCCN2C(=O)[C@@H]2CCCN2C(=O)[C@@H]2CCCN2C(=O)[C@@H]2CCCN2C(=O)[C@@H]2CCCN2C(=O)[C@@H]2CCCN2C(=O)CCCCCNC(=O)CCCC[C@@H]2SC[C@@H]3NC(=O)N[C@@H]32)C(N)=O)cnc1NS(=O)(=O)c1ccc(NC(=O)CCc2cccs2)cc1` ({Biotin-Ahx}-PPPPPPPPPE(X1)-NH2), which Activity is on record?
The Activity was “inactive”.

For `COc1nc(CCCNC(=O)CC[C@H](NC(=O)[C@@H]2CCCN2C(=O)[C@@H]2CCCN2C(=O)[C@@H]2CCCN2C(=O)[C@@H]2CCCN2C(=O)C2CCCN2C(=O)[C@@H]2CCCN2C(=O)[C@@H]2CCCN2C(=O)[C@@H]2CCCN2C(=O)[C@@H]2CCCN2C(=O)CCCCCNC(=O)CCCC[C@@H]2SC[C@@H]3NC(=O)N[C@@H]32)C(N)=O)cnc1NS(=O)(=O)c1ccc(NC(=O)/C=C/c2ccc([N+](=O)[O-])s2)cc1` (single isomer, unassigned), which Activity is on record?
The Activity was “Active”.

same assay, conditions: HT-29, 24 h, read-out: Survival

`C#CCOc1nccnc1NS(=O)(=O)c1ccc(NC(=O)/C=C/c2sccc2[N+](=O)[O-])cc1` was tested. Which viability at 4 µM did it give?
The viability at 4 µM was 19.8%.

With `COc1nccnc1NS(=O)(=O)c1ccc(NC(=O)/C=C/c2ccc([N+](=O)[O-])s2)cc1` as the molecule, how does the viability at 4 µM read?
Its viability at 4 µM is 80.3%.

For `Cc1cc(C)nc(NS(=O)(=O)c2ccc(NC(=O)/C=C/c3ccc([N+](=O)[O-])s3)cc2)n1`, which viability at 4 µM is on record?
The viability at 4 µM was 79.2%.

How did the viability at 4 µM turn out when `COc1nccnc1NS(=O)(=O)c1ccc(NC(=O)/C=C/c2ccc([N+](=O)[O-])cc2)cc1` was run?
Its viability at 4 µM is 32.2%.

How did the viability at 4 µM turn out when `O=C(/C=C/c1ccc([N+](=O)[O-])s1)Nc1ccc(S(=O)(=O)Nc2nccnc2O)cc1` was run?
The viability at 4 µM was 90.4%.

For `COc1nccnc1NS(=O)(=O)c1ccc(NC(=O)CCc2cccs2)cc1`, which viability at 4 µM is on record?
Its viability at 4 µM is 30.4%.

With `COc1nc(Br)cnc1NS(=O)(=O)c1ccc(NC(=O)/C=C/c2ccc([N+](=O)[O-])s2)cc1` as the molecule, how does the viability at 4 µM read?
The viability at 4 µM was 90.8%.

For `COc1nccnc1NS(=O)(=O)c1ccc(NC(=O)/C=C/c2ccc(Br)s2)cc1`, which viability at 4 µM is on record?
Its viability at 4 µM is 31.8%.

How did the viability at 4 µM turn out when `O=C(/C=C/c1ccc([N+](=O)[O-])s1)Nc1ccc(S(=O)(=O)Nc2nccnc2OCc2ccccc2)cc1` was run?
The viability at 4 µM was 92.2%.

For `COc1nccnc1NS(=O)(=O)c1ccc(NC(=O)/C=C/c2cccc([N+](=O)[O-])c2)cc1`, which viability at 4 µM is on record?
Its viability at 4 µM is 32%.

Which viability at 4 µM does the source give for `COc1nccnc1NS(=O)(=O)c1ccc(NC(=O)/C=C/c2cccs2)cc1` here?
Its viability at 4 µM is 29.5%.

For `COc1nccnc1NS(=O)(=O)c1ccc(NC(=O)CCc2ccc([N+](=O)[O-])s2)cc1`, which viability at 4 µM is on record?
Its viability at 4 µM is 29.9%.

Which viability at 4 µM does the source give for `C#CCOc1nccnc1NS(=O)(=O)c1ccc(NC(=O)/C=C/c2ccc([N+](=O)[O-])s2)cc1` here?
Its viability at 4 µM is 90.8%.

molecular target: T1, Mixed lineage kinase domain-like protein (Homo sapiens) (UniProt Q8NB16); assay: Competitive binding affinity to Myc-tagged MLKL (unknown origin) transfected in human HeLa cells at 20 nM by Western blot analysis in presence of biotin-labeled positive probe; type: cell-based; conditions: not given
T1 sequence (whole entry): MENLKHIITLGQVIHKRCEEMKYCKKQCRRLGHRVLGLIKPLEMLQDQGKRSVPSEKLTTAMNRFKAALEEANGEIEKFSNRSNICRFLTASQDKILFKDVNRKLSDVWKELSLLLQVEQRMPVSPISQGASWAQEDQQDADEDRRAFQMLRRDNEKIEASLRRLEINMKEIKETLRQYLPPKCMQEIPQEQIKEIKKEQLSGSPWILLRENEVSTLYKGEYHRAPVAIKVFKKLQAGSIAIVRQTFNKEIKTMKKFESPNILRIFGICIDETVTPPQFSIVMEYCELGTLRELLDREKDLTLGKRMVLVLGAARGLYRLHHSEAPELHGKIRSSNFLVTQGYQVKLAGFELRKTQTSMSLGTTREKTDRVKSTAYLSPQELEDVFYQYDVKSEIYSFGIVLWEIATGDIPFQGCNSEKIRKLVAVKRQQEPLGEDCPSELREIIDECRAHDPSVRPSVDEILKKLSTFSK

`C#CCOc1nccnc1NS(=O)(=O)c1ccc(NC(=O)/C=C/c2sccc2[N+](=O)[O-])cc1` was tested. Which Activity did it give?
The Activity was “inactive”.

How did the Activity turn out when `COc1nccnc1NS(=O)(=O)c1ccc(NC(=O)/C=C/c2ccc([N+](=O)[O-])s2)cc1` was run?
The Activity was “Active”.

For `COc1nccnc1NS(=O)(=O)c1ccc(NC(=O)/C=C/c2ccc(Br)s2)cc1`, which Activity is on record?
The Activity was “inactive”.
